{
  "source": "patent US20030207886A1",
  "about": "“Preparation containing quinoxaline derivatives” (priority 2000, published 2003)",
  "assay": "Maxima of UV-A and UV-B absorption of quinoxaline derivatives in 2-propanol",
  "assay_type": "physicochemical",
  "details": "1 mg of substance per 100 ml of solvent; for UV-B (280 320 nm) Max. abs.: absorbance at UV-B maximum; for UV-B (280 320 nm) λ [nm]: wavelength of UV-B maximum",
  "method": "The measurement was carried out in 2-propanol at a concentration of 1 mg of substance per 100 ml of solvent.",
  "data": [
    {"smiles": "Cc1nc2ccc(Cl)cc2nc1C", "values": [
      {"measurement": "UV-A (400 320 nm) Max. abs.", "setting": "absorbance at UV-A maximum", "value": 0.400},
      {"measurement": "UV-A (400 320 nm) λ [nm]", "setting": "wavelength of UV-A maximum", "value": 322.0, "unit": "nm"}
    ]},
    {"smiles": "Fc1cc(F)c(N(c2cnc3ccccc3n2)c2cnc3ccccc3n2)c(F)c1", "values": [
      {"measurement": "UV-B (280 320 nm) Max. abs.", "value": 0.966},
      {"measurement": "UV-B (280 320 nm) λ [nm]", "value": 289.3, "unit": "nm"}
    ]},
    {"smiles": "O=C(O)c1ccc(NCc2cnc3ccccc3n2)cc1", "values": [
      {"measurement": "UV-B (280 320 nm) Max. abs.", "value": 0.837},
      {"measurement": "UV-B (280 320 nm) λ [nm]", "value": 302.9, "unit": "nm"}
    ]},
    {"smiles": "CCOC(=O)c1nc2ccccc2nc1Nc1cc(OC)c(OC)c(OC)c1", "values": [
      {"measurement": "UV-B (280 320 nm) Max. abs.", "value": 0.614},
      {"measurement": "UV-B (280 320 nm) λ [nm]", "value": 295.6, "unit": "nm"}
    ]},
    {"smiles": "CCOC(=O)c1nc2ccccc2nc1Nc1ccc(C(=O)O)cc1", "values": [
      {"measurement": "UV-B (280 320 nm) Max. abs.", "value": 1.270},
      {"measurement": "UV-B (280 320 nm) λ [nm]", "value": 311.5, "unit": "nm"}
    ]},
    {"smiles": "CCOC(=O)c1nc2ccccc2nc1Nc1cc(OC)c(OC)cc1C(=O)O", "values": [
      {"measurement": "UV-B (280 320 nm) Max. abs.", "value": 0.5713},
      {"measurement": "UV-B (280 320 nm) λ [nm]", "value": 295.0, "unit": "nm"}
    ]},
    {"smiles": "O=C(O)c1ccc(CNc2nc3ccccc3nc2Cl)cc1", "values": [
      {"measurement": "UV-B (280 320 nm) Max. abs.", "value": 0.2183},
      {"measurement": "UV-B (280 320 nm) λ [nm]", "value": 290.0, "unit": "nm"}
    ]},
    {"smiles": "O=c1[nH]c2ccccc2nc1/C=C/C=C/c1ccccc1", "values": [
      {"measurement": "UV-B (280 320 nm) Max. abs.", "value": 0.6004},
      {"measurement": "UV-B (280 320 nm) λ [nm]", "value": 281.5, "unit": "nm"}
    ]},
    {"smiles": "Clc1nc2ccccc2nc1C#Cc1ccccc1", "values": [
      {"measurement": "UV-B (280 320 nm) Max. abs.", "value": 0.6431},
      {"measurement": "UV-B (280 320 nm) λ [nm]", "value": 286.0, "unit": "nm"}
    ]},
    {"smiles": "Cc1ccc(/C=C/c2nc3ccccc3nc2/C=C/c2ccc(C)cc2)cc1", "values": [
      {"measurement": "UV-B (280 320 nm) Max. abs.", "value": 0.3327},
      {"measurement": "UV-B (280 320 nm) λ [nm]", "value": 316.0, "unit": "nm"}
    ]},
    {"smiles": "CCC(=O)c1cnc2ccccc2n1", "values": [
      {"measurement": "UV-B (280 320 nm) Max. abs.", "value": 0.3236},
      {"measurement": "UV-B (280 320 nm) λ [nm]", "value": 307.0, "unit": "nm"}
    ]},
    {"smiles": "CC(C)(C)OC(=O)c1ccc(Nc2nc3ccccc3nc2Cl)cc1", "values": [
      {"measurement": "UV-B (280 320 nm) Max. abs.", "value": 0.4672},
      {"measurement": "UV-B (280 320 nm) λ [nm]", "value": 291.0, "unit": "nm"}
    ]},
    {"smiles": "CCC(CC)COC(=O)c1ccc(Nc2cnc3ccccc3n2)c(O)c1", "values": [
      {"measurement": "UV-B (280 320 nm) Max. abs.", "value": 0.5569},
      {"measurement": "UV-B (280 320 nm) λ [nm]", "value": 291.0, "unit": "nm"}
    ]},
    {"smiles": "O=C(c1ccccc1)c1cnc2ccccc2n1", "values": [
      {"measurement": "UV-B (280 320 nm) Max. abs.", "value": 0.330},
      {"measurement": "UV-B (280 320 nm) λ [nm]", "value": 300.0, "unit": "nm"}
    ]},
    {"smiles": "CC(=O)c1nc2ccccc2nc1C(C)=O", "values": [
      {"measurement": "UV-B (280 320 nm) Max. abs.", "value": 0.3011},
      {"measurement": "UV-B (280 320 nm) λ [nm]", "value": 310.0, "unit": "nm"}
    ]},
    {"smiles": "CC(C)c1ccc(C(=O)c2nc3ccccc3nc2C(=O)c2ccc(C(C)C)cc2)cc1", "values": [
      {"measurement": "UV-B (280 320 nm) Max. abs.", "value": 0.45},
      {"measurement": "UV-B (280 320 nm) λ [nm]", "value": 280.0, "unit": "nm"}
    ]}
  ]
}
